How the values were obtained:
Assay type in all cases: cell-based
[1] = tested on: rat stomach fundus; assay: Cascade Assay, stomach (smooth muscle stimulant effect); settings: superfused, 50% of maximum (PGE1)
Procedure, shortened: (§1)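 Rabbit aortic strip (4 g tension), rat stomach fundus, rat colon and chick rectum (1 g) in cascade, superfused at 10 ml/min with 37° C Krebs containing cholinergic, adrenergic, serotonin and histamine blockers. Doses of 0.001–100,000 ng dripped on at 10–20 min intervals; maximal tension rise gave graphical ED50 per tissue.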

[2] = tested on: chick rectum; assay: Cascade Assay, rectum (smooth muscle stimulant effect); settings: superfused, 50% of maximum (PGE1)
Procedure, shortened: as §1

[3] = tested on: rabbit aortic strip; assay: Cascade Assay, aorta (smooth muscle stimulant effect); settings: superfused, 50% of maximum (PGA2)
Procedure, shortened: as §1

[4] = tested on: rat colon; assay: Cascade Assay, colon (smooth muscle stimulant effect); settings: superfused, 50% of maximum (PGF2α)
Procedure, shortened: as §1

[5] = tested on: Rat Uterus; assay: Effects on the Rat Uterus in Vitro; settings: Rattus norvegicus; in vitro, 29° C; response 50% that of carbachol; read-out: Test F Rat Uterus, Activity Value (ED50)
Procedure, shortened: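 Uterine segments came from rats (140–160 g) given 1 mg/kg diethylstilbestrol s.c. 18 h earlier. Tissue was held isometrically at 1 g tension in de Jalon solution at 29 °C, gassed with 95% O2/5% CO2. Compound was tested at 0.001–10 mcg/ml in log steps, every 10 min with washes, and ED50 was derived graphically as 50% of the second carbachol (1 mcg/ml) response.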

COC(=O)CCCCCC[C@H]1C(=O)C[C@@H](O)[C@@H]1/C=C/[C@H](O)C1CC2(CCC2)C1 [TR-4120, Methyl 7-{3R-hydroxy-5-oxo-2R-[3R-hydroxy-3-(spiro[3.3]hept-2-yl)-1E-propenyl]cyclopent-1R-yl}heptanoate]
Test E Cascade Assay, Stomach, Activity Value (ED50) [1]: 0 (>10000) | Test E Cascade Assay, Rectum, Activity Value (ED50) [2]: 1 (1001 - 10000) | Test E Cascade Assay, Aorta, Activity Value (ED50) [3]: 0 (>10000) | Test E Cascade Assay, Colon, Activity Value (ED50) [4]: 0 (>10000) | EC50 [5]: > 10 µg/mL

Source: patent US4098823A, “Monospiroalkyl derivatives of prostaglandins” (Miles Laboratories, Inc., priority 1977, dated 1978)
